From US11131677B2 (University of Washington, priority 2018, dated 2021)

Columns and labels:
[1] = Oral testosterone pharmacokinetics and serum metabolite profile (LC-MS/MS) in men with acyline-induced experimental hypogonadism, with and without dutasteride; type: in vivo, human; conditions: for Average AUC0-24 h with dutasteride, % with respect to T alone: T200+D vs T200; for Average AUC0-24 h with dutasteride, % as compared to T alone: T800+D vs T800; for AUC0-24 h, fold higher as compared to T AUC0-24 h: human serum, 800 mg dose; for AUC 0-24 h / t½ / Cmax / Tmax: serum; for AUC0-24 h at T800, fold higher than with T200: T800 vs T200
Experimental: T emulsion in sesame oil, mixed with milk, was administered orally to human subjects with acyline-induced experimental hypogonadism. The blood samples were collected and the serum was isolated and stored in −80° C. Steroids and their metabolites were extracted from serum using protein precipitation followed by solid-phase extraction and analyzed by UPLC coupled with SCIEX 6500 MS/MS.
Clinical study design is discussed below. All subjects provided written, informed consent prior to any study procedures. The study was approved by the University of Washington (UW) Investigational Review Board Committee.
While study was conducted with 200, 400 and 800 mg T dose, only T200 and T800 were quantified. […] Samples were mixed for 1 min by vortex mixing, and then centrifuged for 10 min at 3500×g at 4° C. […] Samples (2 mL) were loaded onto the cartridges and flow through was discarded.
Data were acquired by Analyst 1.6 software.

5-AR type 1 and 2 = assay: Dutasteride co-treatment with T in human hepatocyte culture; conditions: for Effect of dutasteride co-treatment on metabolite formation from T: p<0.01 for decreases
Experimental: (§1) A targeted metabolomics study was performed on previously collected samples from an oral T pharmacokinetics (PK) study (800 mg). T and its primary and secondary metabolites in serum were quantified, and PK data of these steroids were analyzed using the non-compartmental method. […] Additionally, T-metabolism study was also performed in human hepatocytes for 1 h. The media and cell pellets were collected for subsequent metabolomics and proteomics analyses, respectively. Effect of dutasteride treatment on androgen metabolome was also investigated, both in vivo and in vitro.

UGT2B7 = UGT2B7 (Homo sapiens, UniProt P16662)
Sequence of UGT2B7 (P16662 24-529): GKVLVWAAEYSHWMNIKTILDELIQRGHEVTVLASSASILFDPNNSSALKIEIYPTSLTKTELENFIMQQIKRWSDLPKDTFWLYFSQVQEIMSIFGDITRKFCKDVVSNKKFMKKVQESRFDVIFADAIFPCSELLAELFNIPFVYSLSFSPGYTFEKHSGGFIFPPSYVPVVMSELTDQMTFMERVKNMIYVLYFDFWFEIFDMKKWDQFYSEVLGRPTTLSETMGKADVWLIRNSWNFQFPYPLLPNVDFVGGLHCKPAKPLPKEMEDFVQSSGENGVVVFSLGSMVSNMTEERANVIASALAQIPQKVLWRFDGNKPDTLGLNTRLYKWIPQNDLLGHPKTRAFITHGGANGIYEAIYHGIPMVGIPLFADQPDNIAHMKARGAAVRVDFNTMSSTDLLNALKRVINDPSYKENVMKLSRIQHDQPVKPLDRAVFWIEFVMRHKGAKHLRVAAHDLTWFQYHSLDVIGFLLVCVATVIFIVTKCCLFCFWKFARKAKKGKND

UGT2B15 = UGT2B15 (Homo sapiens, UniProt P54855)
Sequence of UGT2B15 (P54855 24-530): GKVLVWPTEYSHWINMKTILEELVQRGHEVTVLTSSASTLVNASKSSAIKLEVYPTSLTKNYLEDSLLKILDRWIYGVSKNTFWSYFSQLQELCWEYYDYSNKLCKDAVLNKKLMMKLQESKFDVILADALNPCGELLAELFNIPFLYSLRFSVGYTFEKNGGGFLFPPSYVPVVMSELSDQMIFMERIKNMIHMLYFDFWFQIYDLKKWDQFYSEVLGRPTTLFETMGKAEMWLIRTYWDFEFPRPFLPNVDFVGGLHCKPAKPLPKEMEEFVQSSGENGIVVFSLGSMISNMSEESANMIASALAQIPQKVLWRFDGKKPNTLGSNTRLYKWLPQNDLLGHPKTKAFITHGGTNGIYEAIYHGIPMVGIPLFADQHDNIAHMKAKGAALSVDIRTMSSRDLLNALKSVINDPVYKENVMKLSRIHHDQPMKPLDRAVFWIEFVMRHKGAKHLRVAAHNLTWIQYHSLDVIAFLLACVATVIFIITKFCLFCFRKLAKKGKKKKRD
Experimental: Oxazepam was used as a probe substrate for UGT2B15 activity by measuring oxazepam glucuronide formation (m/z 463.3→287.1, 269.1; DP 70; CE 20) with 10 μM oxazepam.

human hepatocytes = assay: T metabolism in primary human hepatocytes (metabolite formation); conditions: for In vitro formation from T: primary human hepatocyte
Experimental: as §1

[2] = T200 + D (200 mg oral T with dutasteride)
[3] = T800 + D (800 mg oral T with dutasteride)

| SMILES | Absolute level in pooled serum, fold of baseline eugonadal state ([1]; T200) | Average serum AUC0-24 h ([1]; T200) | Average AUC0-24 h with dutasteride, % with respect to T alone [1] | Absolute level in pooled serum, fold of baseline eugonadal state ([1]; T800) | Average AUC0-24 h with dutasteride, % as compared to T alone [1] | AUC0-24 h, fold higher as compared to T AUC0-24 h [1] | AUC 0-24 h ([1]; T200) | t½ ([1]; T200 (200 mg oral T)) | t½ [1, 2] | AUC 0-24 h ([1]; T800) | t½ ([1]; T800 (800 mg oral T)) | AUC 0-24 h ([1]; T800 + D) | t½ [1, 3] | AUC 0-24 h ([1]; T200 + D) | Effect of dutasteride co-treatment on metabolite formation from T (5-AR type 1 and 2) | other results |
| --- | --- | --- | --- | --- | --- | --- | --- | --- | --- | --- | --- | --- | --- | --- | --- | --- |
| C[C@]12CC[C@@H](O[C@@H]3O[C@H](C(=O)O)[C@@H](O)[C@H](O)[C@H]3O)C[C@H]1CC[C@@H]1[C@@H]2CC[C@]2(C)C(=O)CC[C@@H]12 [EtioG, Etiocholanolone glucuronide] | 13 fold | 2160 nmol/L-h | 151% | 39.5 fold | 180% | 87 fold | 2.1604 µM·h | 5.2 h | 10.5 h | 14.9815 µM·h | 7.8 h | 27.0917 µM·h | 9.9 h |  |  |  |
| C[C@]12CCC(=O)C[C@@H]1CC[C@@H]1[C@@H]2CC[C@]2(C)[C@@H](O)CC[C@@H]12 [DHT, 5α-Dihydrotestosterone] | 0.6 fold | 26.5 nmol/L-h |  | 2.2 fold |  |  | 0.0265 µM·h | 17.6 h | 24.0 h | 0.0874 µM·h | 6.9 h | 0.0266 µM·h | 17.9 h | 0.0096 µM·h | significant decreases | Average AUC0-24 h with dutasteride, % lower than T alone ([1]; T200): 64%; Average AUC0-24 h with dutasteride, % lower than T alone ([1]; T800): 70%; AUC0-24 h at T800, fold higher than with T200 [1]: 3.3 fold; Cmax ([1]; T200): 2 nM; Tmax ([1]; T200): 2 h; Cmax ([1]; T200 + D): 0.8 nM; Tmax ([1]; T200 + D): 4 h; Cmax ([1]; T800): 8.4 nM; Tmax ([1]; T800): 2 h; Cmax ([1]; T800 + D): 1.8 nM; Tmax ([1]; T800 + D): 4 h |
| C[C@]12CCC(=O)C[C@@H]1CC[C@@H]1[C@@H]2CC[C@]2(C)[C@@H](O[C@@H]3O[C@H](C(=O)O)[C@@H](O)[C@H](O)[C@H]3O)CC[C@@H]12 [DHTG, DHT-glucuronide] | 7.5 fold |  |  | 40.6 fold |  |  |  |  |  |  |  |  |  |  |  |  |
| C[C@]12C=CC(=O)N[C@@H]1CC[C@@H]1[C@@H]2CC[C@]2(C)[C@@H](C(=O)Nc3cc(C(F)(F)F)ccc3C(F)(F)F)CC[C@@H]12 [dutasteride, reference compound] |  |  |  |  |  |  |  |  |  |  |  |  |  |  |  | Inhibition of 5-AR type 1 and 2 mediated metabolism of T (5-AR type 1 and 2; co-treatment with T): complete inhibition |
| C[C@]12CC[C@@H](O[C@@H]3O[C@H](C(=O)O)[C@@H](O)[C@H](O)[C@H]3O)C[C@@H]1CC[C@@H]1[C@@H]2CC[C@]2(C)C(=O)CC[C@@H]12 [AG, Androsterone glucuronide] | 9.5 fold | 12,111 nmol/L-h | 21% | 29.7 fold | 22% | 389 fold | 12.1108 µM·h | 4.9 h | 4.5 h | 65.4278 µM·h | 4.5 h | 14.8677 µM·h | 6.3 h |  | significant decreases |  |
| Cc1ccc(NC(=O)c2ccc(CN3CCN(C)CC3)cc2)cc1Nc1nccc(-c2cccnc2)n1 [imatinib] |  |  |  |  |  |  |  |  |  |  |  |  |  |  |  | Inhibition of naloxone (UGT2B7) glucuronidation (UGT2B7): No significant inhibition; Inhibition of oxazepam (UGT2B15) glucuronidation (UGT2B15): No significant inhibition |
| C[C@]12CC[C@H]3[C@@H](CCC4=CC(=O)CC[C@@]43C)[C@@H]1CC[C@@H]2O[C@@H]1O[C@H](C(=O)O)[C@@H](O)[C@H](O)[C@H]1O [TG, Testosterone glucuronide] | 78 fold | 857.2 nmol/L-h | 43% | 277 fold | 60% | 85 fold | 0.8572 µM·h | 4.4 h | 4.3 h | 14.163 µM·h | 3.6 h | 8.5897 µM·h | 2.7 h | 0.3734 µM·h | No significant changes | Proportion of total T-related species in circulation ([1]; T dosed orally to men with experimental hypogonadism): 13%; Increase in TG/T ratio of dose-normalized AUC0-24 h ([1]; changing dose from 200 to 800 mg): 9.3 fold; Level in hepatocyte media, fold lower than AG (human hepatocytes; human hepatocytes, T-treated): 3.7 fold; In vitro formation from T (human hepatocytes): 42% |
| C[C@]12CCC(=O)C=C1CC[C@@H]1[C@@H]2CC[C@]2(C)C(=O)CC[C@@H]12 [AED, Androstenedione] | 2.3 fold | 373.7 nmol/L-h |  | 14.9 fold |  |  | 0.3737 µM·h | 12.7 h | 8.3 h | 1.5518 µM·h | 6.8 h | 10.8444 µM·h | 5.2 h | 1.6349 µM·h | No significant changes | Circulating level, fold higher with dutasteride vs T alone ([1]; T200+D and T800+D): 5.7 fold; AUC0-24 h at T800, fold higher than with T200 [1]: 4.2 fold; Cmax ([1]; T200): 66.3 nM; Tmax ([1]; T200): 2 h; Cmax ([1]; T200 + D): 200 nM; Tmax ([1]; T200 + D): 2 h; Cmax ([1]; T800): 280 nM; Tmax ([1]; T800): 1 h; Cmax ([1]; T800 + D): 2300 nM; Tmax ([1]; T800 + D): 2 h; In vitro formation from T (human hepatocytes): 46% |
| C[C@]12CC[C@@H](O)C[C@@H]1CC[C@@H]1[C@@H]2CC[C@]2(C)C(=O)CC[C@@H]12 [A, Androsterone] |  |  |  |  |  |  |  |  |  |  |  |  |  |  |  | Circulating level, % lower in dutasteride treated samples vs T alone ([1]; T200+D): 30%; Circulating level, % lower in dutasteride treated samples vs T alone ([1]; T800+D): 87% |
| C[C@]12CC[C@H]3[C@@H](C[C@@H](O)C4=CC(=O)CC[C@@]43C)[C@@H]1CC[C@@H]2O [6β-OH-T, 6β-hydroxytestosterone] |  |  |  |  |  |  |  |  |  |  |  |  |  |  | significant decreases |  |
